#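 Step 1: Grow cells in 96-well plates. Step 2: Expose to compound for 48 hours at 5 concentrations. Step 3: Interpolate endpoints linearly; if unreached, use highest concentration. TGI: total growth inhibition.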
# How the values were obtained:
# Assay in all cases: inhibition of tumour cell growth, NCI panel, 48 h
# UO-31 renal = system: UO-31 renal
# UACC-257 melanoma = system: UACC-257 melanoma
# MALME-3M melanoma = system: MALME-3M melanoma
# OVCAR-5 ovarian = system: OVCAR-5 ovarian
# HOP-62 NSCLC = system: HOP-62 NSCLC
# MCF7 breast = system: MCF7 breast
# NCI-H23 lung = system: NCI-H23 lung
# HCC-2998 colon = system: HCC-2998 colon
# TK-10 renal = system: TK-10 renal
# CCRF-CEM leukemia = system: CCRF-CEM leukemia
Structure (SMILES),TGI (UO-31 renal),TGI (UACC-257 melanoma),TGI (MALME-3M melanoma),TGI (OVCAR-5 ovarian),TGI (HOP-62 NSCLC),TGI (MCF7 breast),TGI (NCI-H23 lung),TGI (HCC-2998 colon),TGI (TK-10 renal),TGI (CCRF-CEM leukemia)
CCCN1C(=O)CN(S(=O)(=O)c2ccc(Cl)cc2)C1=O,> 100 µM,> 100 µM,> 100 µM,> 100 µM,> 100 µM,> 100 µM,> 100 µM,> 100 µM,> 100 µM,> 100 µM
O[C@@H]1[C@H](OC2c3ccccc3-c3ccccc32)[C@H](OCc2ccccc2)[C@@H]2OC[C@H]1O2,> 100 µM,> 100 µM,> 100 µM,> 100 µM,80 µM,> 100 µM,> 100 µM,> 100 µM,> 100 µM,> 100 µM
COc1cc(Nc2cc(Cl)cc(Cl)c2)nc(N)n1,31.2 µM,38.8 µM,40.4 µM,> 100 µM,36.6 µM,91.4 µM,49.2 µM,34 µM,53.9 µM,43.3 µM
CCOc1ccc(NC(=O)C(=O)C(/C(=N/N)C(=O)OC)c2nc3ccc([N+](=O)[O-])cc3[nH]c2=O)cc1 (stereo not given),> 100 µM,> 100 µM,> 100 µM,> 100 µM,> 100 µM,> 100 µM,> 100 µM,> 100 µM,> 100 µM,> 100 µM
